Experimental findings from patent US7902181B2, “Compounds 010” (AstraZeneca AB, priority 2007, dated 2011) are described below.

The structures appear in SMILES notation. Structures can show the parent of a compound that is named as a salt.

Sequence of Recombinant Human (rh) DPP1 (P53634 25-463): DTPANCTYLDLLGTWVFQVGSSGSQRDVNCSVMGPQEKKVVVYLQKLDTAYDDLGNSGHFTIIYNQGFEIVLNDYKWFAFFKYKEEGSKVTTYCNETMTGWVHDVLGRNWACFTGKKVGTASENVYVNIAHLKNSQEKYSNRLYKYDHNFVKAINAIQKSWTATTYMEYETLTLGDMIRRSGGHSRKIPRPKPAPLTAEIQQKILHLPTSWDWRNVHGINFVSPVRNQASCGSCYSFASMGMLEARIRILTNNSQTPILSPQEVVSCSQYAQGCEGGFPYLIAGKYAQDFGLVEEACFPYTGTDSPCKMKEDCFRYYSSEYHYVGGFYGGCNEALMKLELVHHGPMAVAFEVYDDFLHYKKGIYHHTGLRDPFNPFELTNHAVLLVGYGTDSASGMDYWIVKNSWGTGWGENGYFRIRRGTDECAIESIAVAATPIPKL

The target of this assay is Recombinant Human (rh) DPP1 (Homo sapiens, UniProt P53634). Kind of assay: Fluorescence Assay for Recombinant Human (rh) DPP1. Format: biochemical. Conditions: rhDPP1; substrate H-Gly-Arg-AMC; pH5.0; 30 min pre-incubation, 60 min reaction at 22° C.; highest concentration 10 μM; read-out: DPP1 activity, pIC50 (converted). Here is the method:
Fluorescence Assay for Recombinant Human (rh) DPP1
The activity of DPP1 was determined by measuring the enzymatic release of aminomethyl coumarin (AMC) from the peptide substrate (H-Gly-Arg-AMC), which leads to an increase in fluorescence intensity at λex=350 nm and λem=450 nm. The assay was carried out in black 384 well plates in a final volume of 50 μl at 22° C. The assay conditions contained the following: 25 mM piperazine buffer pH5.0; 50 mM NaCl, 5 mM DTT; 0.01% (v/v) Triton X-100; 100 μM H-Gly-Arg-AMC and rhDPP1 ([…]). Potential inhibitors were made up in DMSO and then diluted in the assay to give a final concentration of 1% (v/v) DMSO. A 12-point half-log dilution of the inhibitors (highest concentration 10 μM) was tested and the pIC50 determined using a 4-parameter logistic equation in a non-linear curve fitting routine. A standard DPP1 inhibitor (vinyl sulfone, see below) was used as a positive control in the assay. Routinely, inhibitors were pre-incubated with rhDPP1 for 30 min prior to the addition of the peptide substrate to start the reaction for a further 60 min at 22° C. After that the plates were immediately read in a fluorescence plate reader using the above emission and excitation wavelengths [modified from Kam, C M, Gotz, M G, Koot, G, McGuire, M J, Thiele, D L, Hudig, D & Powers, J C (2004). Arch Biochem Biophys, 427, 123-134 & McGuire, M J, Lipsky, P E & Thiele, D L (1992). Arch Biochem Biophys, 295, 280-288].
For the compound `COc1ncccc1-c1ccc(C[C@@H](C#N)NC(=O)[C@@H]2CCCCN2)cc1` [Example 40, (2S)-N-[(1S)-1-Cyano-2-[4-(2-methoxypyridin-3-yl)phenyl]ethyl]piperidine-2-carboxamide trifluoroacetate], the IC50 is 0.316 µM.
For `CNC(=O)c1ccc(-c2ccc(C[C@@H](C#N)NC(=O)[C@@H]3CCCCN3)cc2)cc1` [Example 74, (S)-N-((S)-1-Cyano-2-(4′-(methylcarbamoyl)biphenyl-4-yl)ethyl)piperidine-2-carboxamide Trifluoroacetate] the value was 0.1 µM; for `CSc1cccc(-c2ccc(C[C@@H](C#N)NC(=O)[C@@H]3CCCCN3)cc2)c1` [Example 22, (2S)-N-[(1S)-1-Cyano-2-[4-(3-methylsulfanylphenyl)phe-nyl]ethyl]piperidine-2-carboxamide trifluoroacetate], 0.0631 µM; for `CN1CCN(C(=O)c2ccc(-c3ccc(C[C@@H](C#N)NC(=O)[C@@H]4CCCCN4)cc3)cc2)CC1` [Example 76, (S)-N-((S)-1-Cyano-2-(4′-(4-methylpiperazine-1-carbonyl)biphenyl-4-yl)ethyl)piperidine-2-carboxamide Trifluoroacetate], 0.158 µM.
For `COc1ncc(-c2ccc(C[C@@H](C#N)NC(=O)[C@@H]3CCCCN3)cc2)cn1` [Example 46, (2S)-N-[(1S)-1-Cyano-2-[4-(2-methoxypyrimidin-5-yl)phenyl]ethyl]piperidine-2-carboxamide trifluoroacetate] the value was 1.26 µM; for `N#C[C@H](Cc1ccc(-c2ccc(C(N)=O)cc2)cc1)NC(=O)[C@@H]1CCCCN1` [Example 5, (S)-N-((S)-2-(4′-Carbamoylbiphenyl-4-yl)-1-cyanoethyl)piperidine-2-carboxamide Trifluoroacetate], 0.0631 µM; for `N#C[C@H](Cc1ccc(-c2cccc(S(=O)(=O)N3CCCC3)c2)cc1)NC(=O)[C@@H]1CCCCN1` [Example 88, (S)-N-((S)-1-Cyano-2-(3′-(pyrrolidin-1-ylsulfonyl)biphenyl-4-yl)ethyl)piperidine-2-carboxamide Trifluoroacetate], 0.0631 µM.
To `N#C[C@H](Cc1ccc(-c2ccccc2OCc2ccccc2)cc1)NC(=O)[C@@H]1CCCCN1` [Example 51, (2S)-N-[(1S)-1-Cyano-2-[4-(2-phenylmethoxyphenyl)phenyl]ethyl]piperidine-2-carboxamide trifluoroacetate] belongs 2 µM; to `N#Cc1ccc(-c2ccc(C[C@@H](C#N)NC(=O)[C@@H]3CCCCN3)cn2)cc1` [Example 77, (S)-N-((S)-1-Cyano-2-(6-(4-cyanophenyl)pyridin-3-yl)ethyl)piperidine-2-carboxamide Trifluoroacetate], 0.0316 µM.
For `COCCn1c(=O)sc2ccc(-c3ccc(C[C@@H](C#N)NC(=O)[C@@H]4CCCCN4)cc3)cc21` [Example 55, (S)-N-((S)-1-cyano-2-(4-(3-(2-methoxyethyl)-2-oxo-2,3-dihydrobenzo[d]thiazol-5-yl)phenyl)ethyl)piperidine-2-carboxamide], the IC50 was 0.00501 µM.
For `CC(=O)Nc1cccc(-c2ccc(C[C@@H](C#N)NC(=O)[C@@H]3CCCCN3)cc2)c1` [Example 8, (S)-N-((S)-2-(3′-Acetamidobiphenyl-4-yl)-1-cyanoethyl)piperidine-2-carboxamide Trifluoroacetate] the value was 0.126 µM; for `CN(C)C(=O)c1cccc(-c2ccc(C[C@@H](C#N)NC(=O)[C@@H]3CCCCN3)cc2)c1` [Example 42, (2S)-N-[(1S)-1-Cyano-2-[4-[3-(dimethylcarbamoyl)phe-nyl]phenyl]ethyl]piperi-dine-2-carboxamide trifluoroacetate], 0.501 µM; for `N#C[C@H](Cc1ccc(-c2ccc(O)cc2)cc1)NC(=O)[C@@H]1CCCCN1` [Example 23, (2S)-N-[(1S)-1-Cyano-2-[4-(4-hydroxyphenyl)phenyl]ethyl]piperidine-2-carboxamide trifluoroacetate], 0.0631 µM.
To `N#Cc1cccc(-c2ccc(C[C@@H](C#N)NC(=O)[C@@H]3CCN3)cc2)c1` [Example 19, (S)-N-((S)-1-Cyano-2-(3′-cyanobiphenyl-4-yl)ethyl)azetidine-2-carboxamide] belongs 0.2 µM.
For `N#C[C@H](Cc1ccc(-c2cccc(CN3CCCCC3)c2)cc1)NC(=O)[C@@H]1CCCCN1` [Example 2, (S)-N-((S)-1-Cyano-2-(3′-(piperidin-1-ylmethyl)biphenyl-4-yl)ethyl)piperidine-2-carboxamide di-trifluoroacetate] the value was 0.0794 µM.
Consider `N#C[C@H](Cc1ccc(-c2cccc3cccnc23)cc1)NC(=O)[C@@H]1CCCCN1` [Example 49, (2S)-N-[(1S)-1-Cyano-2-(4-quinolin-8-ylphenyl)phenyl]piperidine-2-carboxamide trifluoroacetate], for which the IC50 was 2 µM.
For `N#C[C@H](Cc1ccc(-c2ccccc2)cc1)NC(=O)[C@@H]1CCCN1` [Example 3, (S)-N-((S)-2-(Biphenyl-4-yl)-1-cyanoethyl)pyrrolidine-2-carboxamide], the IC50 was 0.316 µM.
For `CCc1ccc(-c2ccc(C[C@@H](C#N)NC(=O)[C@@H]3CCCCN3)cc2)cc1` [Example 70, (S)-N-((S)-1-Cyano-2-(4′-ethylbiphenyl-4-yl)ethyl)piperidine-2-carboxamide Trifluoroacetate] the value was 0.02 µM.
Consider `N#C[C@H](Cc1ccc(-c2ccccc2O[C@@H]2CCNC2)cc1)NC(=O)[C@@H]1CCCCN1` [Example 13, (S)-N-((S)-1-Cyano-2-(2′-((R)-pyrrolidin-3-yloxy)biphenyl-4-yl)ethyl)piperidine-2-carboxamide Ditrifluoroacetate], for which the IC50 is 0.794 µM.
Turning to `N#C[C@H](Cc1ccc(-c2ccc(C(=O)N3CCCC3)cc2)cc1)NC(=O)[C@@H]1CCCCN1` [Example 75, (S)-N-((S)-1-Cyano-2-(4′-(pyrrolidine-1-carbonyl)biphenyl-4-yl)ethyl)piperidine-2-carboxamide Trifluoroacetate], the IC50 was 0.2 µM.
To `CCN1CCN(S(=O)(=O)c2ccc(-c3ccc(CC(C#N)NC(=O)[C@@H]4CCCCN4)cc3)cc2)CC1` (stereo partly drawn) [Example 107, ((2S)-N-(1-Cyano-2-(4′-(4-ethylpiperazin-1-ylsulfonyl)biphenyl-4-yl)ethyl)piperidine-2-carboxamide Ditrifluoroacetate] belongs 0.00501 µM.
To `CS(=O)(=O)NCc1cccc(-c2ccc(C[C@@H](C#N)NC(=O)[C@@H]3CCCCN3)cc2)c1` [Example 89, (S)-N-((S)-1-Cyano-2-(3′-(methylsulfonamidomethyl)biphenyl-4-yl)ethyl)piperidine-2-carboxamide Trifluoroacetate] belongs 0.0631 µM; to `N#C[C@H](Cc1ccc(-c2ccc(CN3CCOCC3)cc2)cc1)NC(=O)[C@@H]1CCCCN1` [Example 9, (S)-N-((S)-1-Cyano-2-(4′-(morpholinomethyl)biphenyl-4-yl)ethyl)piperidine-2-carboxamide Trifluoroacetate], 0.158 µM.
For `Cn1cc(-c2ccc(C[C@@H](C#N)NC(=O)[C@@H]3CCCCN3)cc2)cn1` [Example 26, (2S)-N-[(1S)-1-Cyano-2-[4-(1-methylpyrazol-4-yl)phenyl]ethyl]piperidine-2-carboxamide trifluoroacetate] the value was 0.0631 µM.
